Patent publication US10675360B2 (MADRIGAL PHARMACEUTICALS, INC., priority 2014, dated 2020)
Where two headings read alike, the source gives them in different places.

Experiments:
[1] = Stability in mouse plasma; assay type: in vitro ADME; details: for Mouse (10 μM) % Remaining 1 h (37° C.) §: § not explained; for % Remaining: 1 h
Procedure: SDC-TRAP-0022 and SDC-TRAP-0028 were incubated in human and mouse plasma for 2 h at 37° C. and assayed for integrity at 0.25, 0.5, 1 and 2 h. The values reported below are the remaining of the parent compound at the end of the 2 h incubation period.
This solution was used to precipitate all plasma samples in the study. 200 μL was pipetted into a 96 deepwell plate over dry ice. 10 μL of 1 mM stock in DMSO was added to a 1.5 mL microfuge tube, then 990 μL of plasma. Samples were mixed by vortex, then 50 μL of each sample was added in triplicate to a 96-well plate containing internal standard solution. This was designated the 0 hour time point sample. 250 μL of the remaining plasma sample was added to each of four 96 deepwell plates—one per time point. Samples were incubated at 37° C. with gentle shaking for 0.25, 0.5, and 1 hour. After each time point, one plate of each sample was removed from the shaker and placed on wet ice for approximately 2 minutes. 50 μL plasma aliquots (in triplicate) were added to the deepwell plate containing internal standard solution. After the last time point was extracted, the 96 deepwell plate was vortexed, then centrifuged at 2-8° C. 150 μL of supernatant was collected and 25 μL of water was added. Samples were mixed and analyzed by LC-MS/MS.
The stability of seven SDC-TRAP types in mouse plasma was measured as follows. 990 μL mouse plasma aliquots from a common stock were spiked with 10 μL of 1 mM stock of one of seven SDC-TRAP samples identified in the table below. Each sample was mixed and divided into 250 μL aliquots, each representing time points 0, 15 minutes, 30 minutes or 1 hour. At the prescribed time point, 3×50 μL samples were each mixed with 200 μL of methanol containing internal standard and held on dry ice until all time point samples were extracted. The samples collectively were vortex mixed for 1.5 minutes at 1500 rpm, then centrifuged at 4400 rpm for 10 minutes at 8° C.

H 3211 NSLC cells = assay: IC50 of continuous and pulsed exposure to SDC-TRAPs; assay type: cell-based; details: 72 h, read-out: IC50, 72 h-continuous, H 3211 NSLC cells, 7.5 × 10^3 cells/well; 1st of 3 columns
[2] = Stability in cell culture media; details: § not explained
Procedure: 98 μL of DMEM+10% FBS, +1% P/S, +1.5 g/L sodium bicarbonate cell culture media was mixed with 2 μL of DMSO and aliquotted into 96-well plates at 250 μL per 0, 1, 2, and 18 hour time point.
3×50 μL media samples in 96 were held in 96-well plates at −80° C. until the last time point was extracted. 200 μL of methanol containing IS was added and mixed by vortex at 1500 rpm for 1.5 minutes at room temperature. The samples were centrifuged at 4400 rpm for 10 minutes at 8° C.

[3] = Tissue distribution of ganetespib in female CD-1 nu/nu mice bearing RERF human NSCLC xenografts; assay type: in vivo, mouse; details: ganetespib 50 mg/kg IV
Procedure: To confirm the distribution of ganetespib in blood, livers, kidneys, brains, hearts, lungs and tumors after IV administration of ganetespib to female CD-1 nu/nu mice bearing RERF human NSCLC xenografts, and to examine metabolic profiles of ganetespib in plasma, red blood cells, and above tissues.
Animals: female CD-1 nu/nu mice bearing RERF human NSCLC xenografts (N=3/group)
Formulation: 10% DMSO, 18% Cremophor RH40, 3.6% dextrose solution (DRD)
Bleeding time points: 5 min, 6, 24 hr
Collected tissues: blood (plasma and red blood cells (RBC)), liver, kidneys, brain, heart, lung, tumor
Protein precipitation: 50 μL of 10 times diluted plasma or RBC+150 μL ACN (10 mM NH4OAc), vortexed and centrifuged at 10000 rpm for 8 min; 150 μL supernatant+150 μL water (10 mM NH4OAc)
Protein precipitation: 100 μL homogenized tissue (1:3 tissue: PBS buffer)+100 μL ACN (10 mM NH4OAc), vortexed and centrifuged at 10000 rpm for 8 min

[4] = Artificial membrane permeability assay (PAMPA); assay type: in vitro ADME; details: 5 h incubation, first table
Procedure: In order to test the ability SDC-TRAP molecules of the invention to enter cells, an artificial membrane permeability assay (“PAMPA”) was used. […] LC/MS was used in conjunction with PAMPA assays to determine the ability of the SDC-TRAP molecules of the invention to permeate cells.
Pre-coated PAMPA plates were warmed to room temperature for at least 30 minutes prior to adding assay components.
Stock solutions were prepared with the SDC-TRAP molecules to be tested. In order to make a working solution, either 50 μL of 100 μM Stock in DMSO+950 μL of PBS or 50 μL of 200 μM stock was added to 96 deep well plate, resulting in a 5 μM final concentration or a 10 μM final concentration, respectively. 300 μL of the working solution containing each compound to be tested was added to the appropriate well of a donor PAMPA plate. 200 μL of PBS was added into the corresponding wells of an acceptor PAMPA plates.
The acceptor plate was lowered onto the donor plate and allowed to incubate for five hours. After five hours, a 50 μL aliquot was removed from each well of each plate and added into a new 96 deep-well plate.
100 μL of methanol containing an internal standard was added to each aliquot and analyzed by LC/MS. The internal standard was 150 ng/ml SDC-TRAP-0002.
In order to calculate the permeability for each SDC-TRAP molecule and the control molecules, the following formula was used:

[5] = Tissue distribution of SDC-TRAPs in tumor-bearing mice (plasma, tumor, heart); details: mouse, in vivo; for Kp: tissue distribution of SDC-TRAP-0076, read-out: Tumor/Plasma Ratio
Procedure: Using the 10 mM stock solutions of the SDC-TRAP molecule and its Hsp90i binding moiety and effector moiety in DMSO, spiking solutions were prepared at 0.025, 0.05, 0.1, 0.5, 1, 5, 10, 50, 100, 250, and 500 μM in DMSO. 5 μL of each spiking solution was added to a 96-deep well plate.
Quality control standards were prepared from 5 μL of 0.1, 1, and 10 μM calibration standard spiking solution added in triplicate into 96-deep well plate and adding 50 μL of matrix (plasma or homogenized tumor).
To prepare test samples, test plasma was diluted as needed using blank plasma. Tumor samples were pulverized in liquid nitrogen, weighed, and homogenized in PBS at 5× volume to sample weight. 50 μL of unknown plasma or homogenized tumor sample was mixed with 5 μL of DMSO. The samples were extracted by precipitating calibration standards, QC standards, and unknown samples with 200 μL of internal standard solution. The samples were mixed by vortex at room temperature for approximately 1.5 minutes, then centrifuge at 2-8° C. 150 μL of supernatant was collected and 25 μL of water added. Samples were mixed and analyzed by LC-MS/MS.
Samples of plasma, heart and tumor were excised from a euthanized mouse, homogenized in PBS at 5 times tissue weight and diluted in 5 μL DMSO/50 μL sample. Prior to analysis, 55 μL samples and calibration standards were precipitated in 200 μL methanol in 96-well plates. Samples were mixed on a vortex mixer for 1.5 minutes at 1500 rpm at room temperature, then centrifuged at 4400 rpm for 10 minutes at 8° C. 150 μL of each supernatant was transferred to a well of a new 96-well plate, and 25 μL of water was added and mixed with the sample. […] For the analysis of samples from female SCID mice, a gradient of solvent A (water/0.1% formic acid) and B (acetonitrile/0.1% formic acid) was used as in Table A below.

Hsp90α = molecular target: T1, Hsp90α (Homo sapiens, UniProt P07900); assay: Hsp90α binding assay (fluorescence polarization, FITC-labeled geldanamycin)
T1 construct: purchased BPS Bioscience 50294
Procedure: An Hsp90^α fluorescence assay kit from BPS Bioscience (Cat #50294) containing Hsp90 recombinant enzyme, FITC-labeled geldanamycin, assay buffer and a low binding 384-well plate was used to assay Hsp90^α binding. Dithiothreitol (DTT) (Cat # D0643) and bovine serum albumin (BSA) (Cat # A2153) were obtained from Sigma-Aldrich. Fluorescence polarization was measured using a PHERAstar microplate reader (BMG LABTECH GmbH, Ortenberg, Germany.)
The compounds were diluted to 1 mM in DMSO and loaded into a compound dilution plate to make 3-fold dilutions yielding a total of 8 concentrations. 1 μL of compound was transferred from the dilution plate to the low binding assay plate provided in the assay kit. 5 mL of Hsp90^α binding solution was prepared having a final concentration of 7 ng/μL Hsp90^α, 5 nM FITC-labeled geldanamycin, 2 mM DTT and 0.1 mg/mL BSA. 49 μL of binding solution was added to each microplate well, incubated at room temperature for 1 hour, then read using the PHERAstar microplate reader. The high control sample contained no compound plus Hsp90^α; the low control sample contained no compound and no Hsp90^α. […] The IC50 was calculated using GraphPad Prism 4 software.

[6] = test system: MCF-7 breast cancer cells; assay: Mouse xenograft efficacy in an MCF-7 breast cancer model; assay type: in vivo; details: FIG. 8
Procedure: MCF-7 breast cancer cells were purchased from ATCC. […] Fetal bovine serum was then added to the medium. The final concentration of fetal bovine serum was 10%. Cells were cultured at 37° C. and 5% CO2.
Mice that were not put on treatment were euthanized. Animals were sourced through CRL (Wilmington, Mass.).

Question: For `CCc1c2c(nc3ccc(OC(=O)N(C)CCOCCn4ccc5cc(-n6c(O)nnc6-c6cc(C(C)C)c(O)cc6O)ccc54)cc13)-c1cc3c(c(=O)n1C2)COC(=O)C3(O)CC` (stereo not drawn) [SDC-TRAP-0029, 4,11-diethyl-4-hydroxy-3,14-dioxo-3,4,12,14-tetrahydro-1H-pyrano[3′,4′:6,7]indolizino[1,2-b]quinolin-9-yl (2-(2-(5-(3-(2,4-dihydroxy-5-isopropylphenyl)-5-hydroxy-4H-1,2,4-triazol-4-yl)-1H-indol-1-yl)ethoxy)ethyl)(methyl)carbamate], which “Mouse (10 μM) % Remaining 1 h (37° C.) §” value ([1]; mouse plasma, 10 μM) is on record?
Answer: 44%

Question: And the “% Remaining” value ([1]; mouse plasma, 37° C.)?
Answer: 47%

Question: What about the IC50 (H 3211 NSLC cells) of the same compound?
Answer: 79 nM

Question: What about the “Media (5 μM) % Remaining 1 h (37° C.) §” value [2] of the same compound?
Answer: 43%

Question: What does the source list for `CC(C)c1cc(-c2n[nH]c(=O)n2-c2ccc3c(ccn3C)c2)c(O)cc1O` [ganetespib]?
Answer: Concentration in tumor ([3]; 5 min): 2.35 µM; Concentration in plasma ([3]; 24 hr): <LLOQ; Persistence in tumor versus plasma and other tissues ([3]; up to 24 hr): persist longer in tumor than in plasma or any other tissues studied

Question: With `CC(C)c1cc(-c2nnc(O)n2-c2ccc3c(ccn3CCNC(=O)CCCCCNC(=O)CCCC[C@H]3SCC4NC(=O)NC43)c2)c(O)cc1O` (stereo in doubt) [SDC-TRAP-0234, N-(2-(5-(3-(2,4-dihydroxy-5-isopropylphenyl)-5-hydroxy-4H-1,2,4-triazol-4-yl)-1H-indol-1-yl)ethyl)-6-(5-((3aR,4R,6aS)-2-oxohexahydro-1H-thieno[3,4-d]imidazol-4-yl)pentanamido)hexanamide] as the compound, how does the Papp at 5 h [4] read?
Answer: 0.0123 ×10⁻⁶ cm/s

Question: With `CCc1c2c(nc3ccc(OC(=O)N4CCN(c5ccc(-n6c(O)nnc6-c6cc(C(C)C)c(O)cc6O)cc5)CC4)cc13)-c1cc3c(c(=O)n1C2)COC(=O)C3(O)CC` (stereo not drawn) [SDC-TRAP-0045, 4,11-diethyl-4-hydroxy-3,14-dioxo-3,4,12,14-tetrahydro-1H-pyrano[3′,4′:6,7]indolizino[1,2-b]quinolin-9-yl 4-(4-(3-(2,4-dihydroxy-5-isopropylphenyl)-5-hydroxy-4H-1,2,4-triazol-4-yl)phenyl)piperazine-1-carboxylate] as the compound, how does the “Mouse (10 μM) % Remaining 1 h (37° C.) §” value ([1]; mouse plasma, 10 μM) read?
Answer: 34%

Question: And the “% Remaining” value ([1]; mouse plasma, 37° C.)?
Answer: 45%

Question: What about the “Media (5 μM) % Remaining 1 h (37° C.) §” value [2] of the same compound?
Answer: 72%

Question: What does the source list for `CCNC(=O)c1nnc(-c2cc(C(C)C)c(O)cc2O)n1-c1ccc(CN2CCC(C(=O)N3CCC(C(=O)OC4(CC)C(=O)OCc5c4cc4n(c5=O)Cc5c-4nc4ccc(O)cc4c5CC)CC3)CC2)cc1` (stereo not drawn) [SDC-TRAP-0076, 4,11-diethyl-9-hydroxy-3,14-dioxo-3,4,12,14-tetrahydro-1H-pyrano[3′,4′:6,7]indolizino[1,2-b]quinolin-4-yl 1-(1-(4-(3-(2,4-dihydroxy-5-isopropylphenyl)-5-(ethylcarbamoyl)-4H-1,2,4-triazol-4-0)benzyl)piperidine-4-carbonyl)piperidine-4-carboxylate]?
Answer: % Remaining ([1]; mouse plasma, 37° C.): 96%; Kp ([5]; 1 h): 0.17; Kp ([5]; 6 h): 2.25; Kp ([5]; 24 h): 20.4; Kp ([5]; 48 h): 6.85; Kp ([5]; […]): 0.01

Question: With `CCc1c2c(nc3ccc(OC(=O)N4CCN(Cc5ccc(-n6c(O)nnc6-c6cc(C(C)C)c(O)cc6O)cc5)CC4)cc13)-c1cc3c(c(=O)n1C2)COC(=O)C3(O)CC` (stereo not drawn) [SDC-TRAP-0046, 4,11-diethyl-4-hydroxy-3,14-dioxo-3,4,12,14-tetrahydro-1H-pyrano[3′,4′:6,7]indolizino[1,2-b]quinolin-9-yl 4-(4-(3-(2,4-dihydroxy-5-isopropylphenyl)-5-hydroxy-4H-1,2,4-triazol-4-yl)benzyl)piperazine-1-carboxylate] as the compound, how does the “Mouse (10 μM) % Remaining 1 h (37° C.) §” value ([1]; mouse plasma, 10 μM) read?
Answer: 50%

Question: What about the “% Remaining” value ([1]; mouse plasma, 37° C.) of the same compound?
Answer: 52%

Question: What about the “Media (5 μM) % Remaining 1 h (37° C.) §” value [2] of the same compound?
Answer: 62%

Question: Which results are given for `CCc1c2c(nc3ccc(OC(=O)N4CCC(CCn5ccc6cc(-n7c(O)nnc7-c7cc(C(C)C)c(O)cc7O)ccc65)CC4)cc13)-c1cc3c(c(=O)n1C2)COC(=O)[C@]3(O)CC` [SDC-TRAP-0063, 4,11-diethyl-4-hydroxy-3,14-dioxo-3,4,12,14-tetrahydro-1H-pyrano[3′,4′:6,7]indolizino[1,2-b]quinolin-9-yl 4-(2-(5-(3-(2,4-dihydroxy-5-isopropylphenyl)-5-hydroxy-4H-1,2,4-triazol-4-yl)-1H-indol-1-yl)ethyl)piperidine-1-carboxylate]?
Answer: % Remaining ([1]; mouse, plasma, 10 μM): 11.1%; EC50 (Hsp90α): 158 nM; Selective targeting of tumor [5]: selectively targets and accumulates in tumor cells; Suppression of increase in tumor volume, higher versus lower dose ([6]; 150 mg/kg/1×wk compared to 100 mg/kg/1×wk): appears to prolong the suppression of increase in tumor volume compared to a lower dose; Tumor growth suppression versus irinotecan alone or ganetespib plus irinotecan ([6]; 150 or 100 mg/kg/1×wk): greater tumor growth suppression than effector moiety irinotecan alone

Question: Which “% Remaining” value ([1]; mouse plasma, 37° C.) does the source give for `CCc1c2c(nc3ccc(OC(=O)N(C)C4CCN(C(=O)CCn5ccc6cc(-n7c(O)nnc7-c7cc(C(C)C)c(O)cc7O)ccc65)CC4)cc13)-c1cc3c(c(=O)n1C2)COC(=O)C3(O)CC` (stereo not drawn) [SDC-TRAP-0184, 4,11-diethyl-4-hydroxy-3,14-dioxo-3,4,12,14-tetrahydro-1H-pyrano[3′,4′:6,7]indolizino[1,2-b]quinolin-9-yl (1-(3-(5-(3-(2,4-dihydroxy-5-isopropylphenyl)-5-hydroxy-4H-1,2,4-triazol-4-yl)-1H-indol-1-yl)propanoyl)piperidin-4-yl)(methyl)carbamate] here?
Answer: 18.0%

Question: What about the EC50 (Hsp90α) of the same compound?
Answer: 86.6 nM
